Results as given in ChEMBL document CHEMBL4507262, “Data for DCP probe A-1596586” (2021).

Assays:
[1] = system: Receptor-type tyrosine-protein kinase FLT3 (Homo sapiens), P36888 [D835H]; details: Compound concentration 1000.0 nM
[2] = molecular target: Mitogen-activated protein kinase 11 (Homo sapiens) (UniProt Q15759); details: Compound concentration 1000.0 nM
[3] = molecular target: Tyrosine-protein kinase Tec (Homo sapiens) (UniProt P42680); details: Compound concentration 1000.0 nM
[4] = molecular target: Dual specificity mitogen-activated protein kinase kinase 1 (Homo sapiens) (UniProt Q02750); details: Compound concentration 1000.0 nM
[5] = molecular target: Fibroblast growth factor receptor 1 (Homo sapiens) (UniProt P11362); details: Compound concentration 1000.0 nM
Fibroblast growth factor receptor 1 (Homo sapiens), sequence (P11362 22-822 limits assumed): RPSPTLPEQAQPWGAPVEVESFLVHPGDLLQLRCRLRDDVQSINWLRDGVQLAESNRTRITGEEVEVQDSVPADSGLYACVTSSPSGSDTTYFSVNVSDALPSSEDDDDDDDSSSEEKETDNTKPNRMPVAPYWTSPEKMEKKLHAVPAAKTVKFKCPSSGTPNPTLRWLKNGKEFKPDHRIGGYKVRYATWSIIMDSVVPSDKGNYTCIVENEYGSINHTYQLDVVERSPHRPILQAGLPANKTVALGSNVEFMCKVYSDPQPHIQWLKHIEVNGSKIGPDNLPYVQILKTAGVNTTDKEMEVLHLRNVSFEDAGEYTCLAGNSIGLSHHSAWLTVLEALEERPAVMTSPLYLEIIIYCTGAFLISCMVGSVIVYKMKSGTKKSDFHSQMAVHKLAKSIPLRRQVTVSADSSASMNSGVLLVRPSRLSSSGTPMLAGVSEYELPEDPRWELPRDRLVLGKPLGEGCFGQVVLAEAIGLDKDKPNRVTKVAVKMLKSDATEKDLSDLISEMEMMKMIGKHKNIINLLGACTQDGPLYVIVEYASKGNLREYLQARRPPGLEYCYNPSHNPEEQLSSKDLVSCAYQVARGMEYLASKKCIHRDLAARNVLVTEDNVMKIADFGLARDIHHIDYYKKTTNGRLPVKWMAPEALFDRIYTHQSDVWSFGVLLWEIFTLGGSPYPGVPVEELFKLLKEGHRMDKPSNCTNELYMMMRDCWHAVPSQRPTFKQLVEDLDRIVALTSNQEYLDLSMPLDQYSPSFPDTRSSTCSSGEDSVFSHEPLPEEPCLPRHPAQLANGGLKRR

[6] = molecular target: Megakaryocyte-associated tyrosine-protein kinase (Homo sapiens) (UniProt P42679); details: Compound concentration 1000.0 nM
[7] = system: Phosphatidylinositol 4,5-bisphosphate 3-kinase catalytic subunit alpha isoform (Homo sapiens), P42336 [H1047Y]; details: Compound concentration 1000.0 nM
[8] = molecular target: Beta-adrenergic receptor kinase 1 (Homo sapiens) (UniProt P25098); details: Compound concentration 1000.0 nM
Beta-adrenergic receptor kinase 1 (Homo sapiens), sequence (P25098 whole entry): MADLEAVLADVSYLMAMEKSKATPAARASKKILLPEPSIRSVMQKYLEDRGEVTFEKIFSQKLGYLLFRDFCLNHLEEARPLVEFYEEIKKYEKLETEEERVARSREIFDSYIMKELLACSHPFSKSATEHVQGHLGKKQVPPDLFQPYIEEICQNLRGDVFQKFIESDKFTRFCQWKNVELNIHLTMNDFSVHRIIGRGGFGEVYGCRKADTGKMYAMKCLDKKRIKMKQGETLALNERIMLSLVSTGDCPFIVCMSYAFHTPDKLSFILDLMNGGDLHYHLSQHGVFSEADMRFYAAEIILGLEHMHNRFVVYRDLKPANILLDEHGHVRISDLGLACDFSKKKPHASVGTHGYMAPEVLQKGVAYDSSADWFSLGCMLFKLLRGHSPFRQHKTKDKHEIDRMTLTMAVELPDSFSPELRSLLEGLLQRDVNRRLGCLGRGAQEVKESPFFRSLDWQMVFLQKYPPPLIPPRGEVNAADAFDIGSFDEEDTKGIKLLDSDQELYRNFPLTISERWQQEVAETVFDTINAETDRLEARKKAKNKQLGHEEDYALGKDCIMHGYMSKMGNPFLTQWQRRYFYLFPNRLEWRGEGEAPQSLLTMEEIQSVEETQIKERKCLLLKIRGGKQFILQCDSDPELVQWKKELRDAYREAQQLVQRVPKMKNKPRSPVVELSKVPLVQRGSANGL

[9] = molecular target: Cyclin-dependent kinase 3 (Homo sapiens) (UniProt Q00526); details: Compound concentration 1000.0 nM
Cyclin-dependent kinase 3 (Homo sapiens), sequence (Q00526 whole entry, looked up): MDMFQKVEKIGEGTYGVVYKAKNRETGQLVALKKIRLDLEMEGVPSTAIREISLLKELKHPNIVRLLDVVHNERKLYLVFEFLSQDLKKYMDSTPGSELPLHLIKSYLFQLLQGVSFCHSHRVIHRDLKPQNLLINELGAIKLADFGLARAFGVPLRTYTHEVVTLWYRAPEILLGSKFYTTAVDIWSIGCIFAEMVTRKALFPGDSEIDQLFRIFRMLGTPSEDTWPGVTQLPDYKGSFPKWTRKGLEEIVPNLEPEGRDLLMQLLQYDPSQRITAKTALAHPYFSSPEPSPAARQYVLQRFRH

[10] = molecular target: Dual specificity protein kinase TTK (Homo sapiens) (UniProt P33981); details: Compound concentration 1000.0 nM
[11] = molecular target: Calcium/calmodulin-dependent protein kinase type 1G (Homo sapiens) (UniProt Q96NX5); details: Compound concentration 1000.0 nM
[12] = molecular target: Beta-3 adrenergic receptor (Homo sapiens) (UniProt P13945); details: Compound concentration 10.0 uM
[13] = molecular target: Receptor tyrosine-protein kinase erbB-3 (Homo sapiens) (UniProt P21860); details: Compound concentration 1000.0 nM
[14] = molecular target: B2 bradykinin receptor (Homo sapiens) (UniProt P30411); assay: B2 (h) Eurofins-Cerep binding assay; set-up: ligand concentration 0.3 nM; details: filed as agonist, Compound concentration 10.0 uM
[15] = molecular target: Receptor-interacting serine/threonine-protein kinase 4 (Homo sapiens) (UniProt P57078); details: Compound concentration 1000.0 nM
[16] = molecular target: Casein kinase I isoform gamma-2 (Homo sapiens) (UniProt P78368); details: Compound concentration 1000.0 nM
Casein kinase I isoform gamma-2 (Homo sapiens), sequence (P78368 whole entry, looked up, canonical isoform): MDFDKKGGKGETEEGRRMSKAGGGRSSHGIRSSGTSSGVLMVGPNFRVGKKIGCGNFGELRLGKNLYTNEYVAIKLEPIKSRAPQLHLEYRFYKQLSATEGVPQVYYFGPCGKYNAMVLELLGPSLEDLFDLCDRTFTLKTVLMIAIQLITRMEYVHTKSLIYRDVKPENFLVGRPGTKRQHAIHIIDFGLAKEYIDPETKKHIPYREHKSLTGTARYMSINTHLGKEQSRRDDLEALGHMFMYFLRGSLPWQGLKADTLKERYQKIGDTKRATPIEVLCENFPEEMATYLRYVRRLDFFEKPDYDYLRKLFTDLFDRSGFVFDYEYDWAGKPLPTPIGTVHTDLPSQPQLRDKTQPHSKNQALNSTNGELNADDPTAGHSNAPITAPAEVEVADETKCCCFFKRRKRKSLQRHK

[17] = molecular target: Mitogen-activated protein kinase kinase kinase 2 (Homo sapiens) (UniProt Q9Y2U5); details: Compound concentration 1000.0 nM
[18] = molecular target: GABA-A receptor; anion channel (Rattus norvegicus) (UniProt O09028+P15431+P18506+P18508+P19969+P20236+P23574+P23576+P28471+P28473+P30191+P62813+P63079+P63138+Q91ZM7+Q9ES14); assay: Cl- channel (GABA-gated) Eurofins-Cerep binding assay; format: protein-complex assay; set-up: ligand concentration 3 nM; details: filed as antagonist, Compound concentration 10.0 uM
[19] = molecular target: MAP/microtubule affinity-regulating kinase 3 (Homo sapiens) (UniProt P27448); details: Compound concentration 1000.0 nM
[20] = molecular target: D(1A) dopamine receptor (Homo sapiens) (UniProt P21728); details: Compound concentration 10.0 uM
[21] = molecular target: Glutamate NMDA receptor (Rattus norvegicus) (UniProt P35439+Q00959+Q00960+Q00961+Q62645+Q8VHN2+Q9R1M7); assay: NMDA Eurofins-Cerep binding assay; format: protein-complex assay; set-up: ligand concentration 5 nM; details: filed as antagonist, Compound concentration 10.0 uM
[22] = molecular target: Proto-oncogene tyrosine-protein kinase ROS (Homo sapiens) (UniProt P08922); details: Compound concentration 1000.0 nM
[23] = system: Receptor-type tyrosine-protein kinase FLT3 (Homo sapiens), P36888 [D835V]; details: Compound concentration 1000.0 nM
[24] = system: Tyrosine-protein kinase ABL1 (Homo sapiens), P00519 [Q252H]; details: Compound concentration 1000.0 nM
[25] = molecular target: Serine/threonine-protein kinase LATS1 (Homo sapiens) (UniProt O95835); details: Compound concentration 1000.0 nM
Serine/threonine-protein kinase LATS1 (Homo sapiens), sequence (O95835 whole entry): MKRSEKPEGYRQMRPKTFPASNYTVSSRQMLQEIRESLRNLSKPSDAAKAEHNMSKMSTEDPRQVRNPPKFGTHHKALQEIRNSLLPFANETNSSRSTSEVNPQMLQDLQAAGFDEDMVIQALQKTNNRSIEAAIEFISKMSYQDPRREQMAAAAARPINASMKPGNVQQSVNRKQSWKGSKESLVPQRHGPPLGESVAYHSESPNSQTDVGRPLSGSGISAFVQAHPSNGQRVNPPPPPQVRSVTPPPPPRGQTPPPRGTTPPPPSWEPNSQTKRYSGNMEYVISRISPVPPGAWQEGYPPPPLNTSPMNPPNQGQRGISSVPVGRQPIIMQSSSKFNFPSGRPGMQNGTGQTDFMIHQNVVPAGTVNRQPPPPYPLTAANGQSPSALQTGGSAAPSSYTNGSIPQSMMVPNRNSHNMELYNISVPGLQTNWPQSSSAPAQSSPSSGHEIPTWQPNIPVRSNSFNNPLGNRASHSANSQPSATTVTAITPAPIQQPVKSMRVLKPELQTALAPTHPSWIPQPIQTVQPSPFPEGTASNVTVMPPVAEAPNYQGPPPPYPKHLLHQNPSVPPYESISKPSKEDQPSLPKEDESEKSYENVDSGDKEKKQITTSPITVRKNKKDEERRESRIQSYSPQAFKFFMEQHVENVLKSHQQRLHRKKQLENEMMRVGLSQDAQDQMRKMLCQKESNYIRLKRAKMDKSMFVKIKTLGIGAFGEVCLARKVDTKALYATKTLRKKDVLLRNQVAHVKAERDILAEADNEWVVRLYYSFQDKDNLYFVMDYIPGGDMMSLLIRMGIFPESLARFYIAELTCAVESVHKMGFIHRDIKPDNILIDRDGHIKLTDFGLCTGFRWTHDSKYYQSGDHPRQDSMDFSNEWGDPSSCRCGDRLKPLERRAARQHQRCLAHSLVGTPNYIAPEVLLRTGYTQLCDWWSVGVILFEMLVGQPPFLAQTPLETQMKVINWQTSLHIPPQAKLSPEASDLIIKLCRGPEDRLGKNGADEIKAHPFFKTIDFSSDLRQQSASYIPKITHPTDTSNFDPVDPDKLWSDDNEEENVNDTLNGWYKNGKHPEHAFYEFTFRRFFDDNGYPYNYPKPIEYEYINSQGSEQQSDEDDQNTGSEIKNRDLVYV

[26] = molecular target: Ephrin type-B receptor 4 (Homo sapiens) (UniProt P54760); details: Compound concentration 1000.0 nM
[27] = molecular target: Dual specificity mitogen-activated protein kinase kinase 7 (Homo sapiens) (UniProt O14733); details: Compound concentration 1000.0 nM
Dual specificity mitogen-activated protein kinase kinase 7 (Homo sapiens), sequence (O14733 whole entry): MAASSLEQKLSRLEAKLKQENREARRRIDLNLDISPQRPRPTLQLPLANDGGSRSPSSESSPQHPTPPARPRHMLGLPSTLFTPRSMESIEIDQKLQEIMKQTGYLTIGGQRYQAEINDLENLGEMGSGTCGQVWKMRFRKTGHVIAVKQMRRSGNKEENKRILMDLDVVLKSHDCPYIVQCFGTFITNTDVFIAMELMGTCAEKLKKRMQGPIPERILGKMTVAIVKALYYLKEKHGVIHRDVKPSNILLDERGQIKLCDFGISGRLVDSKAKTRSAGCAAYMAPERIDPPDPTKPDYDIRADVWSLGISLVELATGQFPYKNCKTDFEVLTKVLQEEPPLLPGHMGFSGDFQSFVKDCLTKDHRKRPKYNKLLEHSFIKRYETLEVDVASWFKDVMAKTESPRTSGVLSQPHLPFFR

[28] = molecular target: L-type Ca2+ channel (dihydropyridine site) (Rattus norvegicus, UniProt P22002+P27732+Q02485); assay: Ca2+ channel (L, dihydropyridine site) Eurofins-Cerep binding assay; format: protein assay; set-up: incubation time 90 min, incubation temperature RT, ligand concentration 0.1 nM; details: rat cerebral cortex, probe [3H]nitrendipine (0.1 nM), compound concentration 10 uM, read-out: % Inhibition of Control Specific Binding (Mean n=2)
[29] = molecular target: Serine/threonine-protein kinase DCLK1 (Homo sapiens) (UniProt O15075); details: Compound concentration 1000.0 nM
[30] = molecular target: Sulfonylurea receptors; K-ATP channels (Rattus norvegicus) (UniProt Q63563+P70673+Q63664+Q09429); assay: KATP channel Eurofins-Cerep binding assay; format: protein-complex assay; set-up: ligand concentration 0.1 nM; details: filed as antagonist, Compound concentration 10.0 uM
[31] = molecular target: Serine/threonine-protein kinase RIO3 (Homo sapiens) (UniProt O14730); details: Compound concentration 1000.0 nM
[32] = molecular target: Ephrin type-B receptor 2 (Homo sapiens) (UniProt P29323); details: Compound concentration 1000.0 nM
[33] = molecular target: Non-receptor tyrosine-protein kinase TYK2 (Homo sapiens) (UniProt P29597); details: Compound concentration 1000.0 nM
[34] = molecular target: Serine/threonine-protein kinase WNK2 (Homo sapiens) (UniProt Q9Y3S1); details: Compound concentration 1000.0 nM
[35] = molecular target: Calcium/calmodulin-dependent protein kinase type II subunit beta (Homo sapiens) (UniProt Q13554); details: Compound concentration 1000.0 nM
[36] = molecular target: Mitogen-activated protein kinase kinase kinase 15 (Homo sapiens) (UniProt Q6ZN16); details: Compound concentration 1000.0 nM
[37] = molecular target: Mast/stem cell growth factor receptor Kit (Homo sapiens) (UniProt P10721); details: Compound concentration 1000.0 nM
Mast/stem cell growth factor receptor Kit (Homo sapiens), sequence (P10721 whole entry): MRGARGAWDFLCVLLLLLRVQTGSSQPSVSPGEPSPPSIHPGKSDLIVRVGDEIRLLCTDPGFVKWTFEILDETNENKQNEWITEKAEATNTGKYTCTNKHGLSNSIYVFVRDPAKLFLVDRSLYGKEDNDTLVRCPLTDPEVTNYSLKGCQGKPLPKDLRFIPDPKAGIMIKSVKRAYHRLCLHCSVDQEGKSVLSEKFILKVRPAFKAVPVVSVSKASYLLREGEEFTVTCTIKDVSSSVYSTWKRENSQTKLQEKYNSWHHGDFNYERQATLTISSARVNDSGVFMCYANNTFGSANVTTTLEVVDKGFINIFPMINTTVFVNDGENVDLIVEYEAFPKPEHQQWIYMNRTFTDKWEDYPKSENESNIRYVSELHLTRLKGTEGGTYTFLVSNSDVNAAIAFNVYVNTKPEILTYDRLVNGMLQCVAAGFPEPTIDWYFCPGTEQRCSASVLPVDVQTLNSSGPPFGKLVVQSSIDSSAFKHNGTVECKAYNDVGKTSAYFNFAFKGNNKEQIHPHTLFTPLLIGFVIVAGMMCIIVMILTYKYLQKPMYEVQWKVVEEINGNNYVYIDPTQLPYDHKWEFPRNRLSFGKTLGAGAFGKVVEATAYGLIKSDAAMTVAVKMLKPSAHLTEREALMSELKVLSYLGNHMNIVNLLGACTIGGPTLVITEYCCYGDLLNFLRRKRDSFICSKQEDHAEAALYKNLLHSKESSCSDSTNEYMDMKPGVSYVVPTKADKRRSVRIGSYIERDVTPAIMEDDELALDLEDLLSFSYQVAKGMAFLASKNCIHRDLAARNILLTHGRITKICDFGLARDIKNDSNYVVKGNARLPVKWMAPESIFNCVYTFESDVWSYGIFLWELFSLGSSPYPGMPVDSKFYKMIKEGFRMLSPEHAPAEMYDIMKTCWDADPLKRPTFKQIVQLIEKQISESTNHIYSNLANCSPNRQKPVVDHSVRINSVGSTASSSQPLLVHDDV

[38] = molecular target: Tyrosine-protein kinase BTK (Homo sapiens) (UniProt Q06187); details: Compound concentration 1000.0 nM
[39] = system: Phosphatidylinositol 4,5-bisphosphate 3-kinase catalytic subunit alpha isoform (Homo sapiens), P42336 [E542K]; details: Compound concentration 1000.0 nM
[40] = molecular target: Ribosomal protein S6 kinase alpha-2 (Homo sapiens) (UniProt Q15349); details: Compound concentration 1000.0 nM
[41] = system: Epidermal growth factor receptor (Homo sapiens), P00533 [UNDEFINED MUTATION]; details: Compound concentration 1000.0 nM

For `COc1ccc2c(c1)O[C@@H](c1ccc(OC)c(OC)c1)C[C@H]2NC(=O)C1(c2ccc3c(c2)OC(F)(F)O3)CC1` [A-1596586], the residual activity [1] was 100%, the residual activity [2] was 92% and the residual activity [3] was 89%. It also gave a residual activity [4] of 86%, a residual activity [5] of 90% and a residual activity [6] of 93%. The residual activity [7] was 77%, the residual activity [8] was 100% and the residual activity [9] was 100%. For the same compound, the residual activity [10] was 100%, the residual activity [11] was 84% and the inhibition [12] was 3.77%. It also gave a residual activity [13] of 86%, a % Inhibition of Control Specific Binding (Mean n=2) [14] of -13.5% and a residual activity [15] of 67%. For the same compound, the residual activity [16] was 88%, the residual activity [17] was 86% and the % Inhibition of Control Specific Binding (Mean n=2) [18] was 57.7%. For the same compound, the residual activity [19] was 100%, the inhibition [20] was 29.2% and the % Inhibition of Control Specific Binding (Mean n=2) [21] was 8.7%. It also gave a residual activity [22] of 97%, a residual activity [23] of 99% and a residual activity [24] of 93%. The residual activity [25] was 92%, the residual activity [26] was 91% and the residual activity [27] was 88%. It also gave an inhibition at 90 min, 10 µM [28] of 34.6%, a residual activity [29] of 82% and a % Inhibition of Control Specific Binding (Mean n=2) [30] of -1.9%. It also gave a residual activity [31] of 100%, a residual activity [32] of 100% and a residual activity [33] of 65%. It also gave a residual activity [34] of 84%, a residual activity [35] of 69% and a residual activity [36] of 88%. The residual activity [37] was 86%, the residual activity [38] was 81% and the residual activity [39] was 79%. For the same compound, the residual activity [40] was 90% and the residual activity [41] was 100%.
With `COc1ccc2c(c1)O[C@H](c1ccc(OC)c(OC)c1)C[C@@H]2NC(=O)C1(c2ccc3c(c2)OC(F)(F)O3)CC1` [A-1596584] the residual activity [1] was 100%, the residual activity [2] was 93% and the residual activity [3] was 100%. The residual activity [4] was 100%, the residual activity [5] was 87% and the residual activity [6] was 100%. For the same compound, the residual activity [7] was 100%, the residual activity [8] was 84% and the residual activity [9] was 100%. It also gave a residual activity [10] of 100%, a residual activity [11] of 100% and an inhibition [12] of -7.53%. For the same compound, the residual activity [13] was 92%, the % Inhibition of Control Specific Binding (Mean n=2) [14] was -8.3% and the residual activity [15] was 75%. For the same compound, the residual activity [16] was 95%, the residual activity [17] was 91% and the % Inhibition of Control Specific Binding (Mean n=2) [18] was 82.4%. It also gave a residual activity [19] of 95%, an inhibition [20] of 35.1% and a % Inhibition of Control Specific Binding (Mean n=2) [21] of 1.3%. The residual activity [22] was 73%, the residual activity [23] was 92% and the residual activity [24] was 100%. For the same compound, the residual activity [25] was 65%, the residual activity [26] was 88% and the residual activity [27] was 100%. For the same compound, the inhibition at 90 min, 10 µM [28] was 2.6%, the residual activity [29] was 100% and the % Inhibition of Control Specific Binding (Mean n=2) [30] was 5.1%. For the same compound, the residual activity [31] was 100%, the residual activity [32] was 84% and the residual activity [33] was 85%. The residual activity [34] was 85%, the residual activity [35] was 88% and the residual activity [36] was 100%. It also gave a residual activity [37] of 100%, a residual activity [38] of 92% and a residual activity [39] of 95%. It also gave a residual activity [40] of 100% and a residual activity [41] of 100%.
